Laboratory results as given in patent publication US20240245682A1, “ALPHA-V-BETA-8 INTEGRIN INHIBITORS AND USES THEREOF” (Pliant Therapeutics, Inc., priority 2022, published 2024).
Entries after “also recorded” stand apart in the source; their conditions may differ.

Experiments:
[1] = system: primary human cancer associated fibroblasts (CAFs); experiment: CAF adhesion to TGFβ latency-associated peptide (LAP), high-content imaging; format: cell-based
Procedure: Integrin αVβ1 is expressed in multiple solid tumors and drives the adhesion of cancer-associated fibroblasts (CAFs) to latent TGFβ. In human tumor tissues and in CAFs, αVβ1 protein expression was evaluated via immunohistochemistry (IHC) and custom […] assay, respectively. CAF adhesion to the TGFβ latency-associated peptide (LAP) was quantified in the presence or absence of Compound 39 in vitro by high-content microscopy imaging. The activity of Compound 39 in combination with anti-mPD-1 on fibrotic markers was evaluated in the EMT6 tumor model in vivo by gene expression analysis using the Nanostring® nCounter analysis system. Compound 39-treated human breast tumor tissue was analyzed for fibrotic marker α-smooth muscle actin (αSMA) using immunofluorescence.
αvβ1 protein expression was evaluated in human tumor tissues via immunohistochemistry. αvβ1 protein levels in primary human CAFs isolated from pancreatic carcinoma, lung adenocarcinoma, and lung squamous cell carcinoma were quantified via custom electrochemiluminescence assay. CAF adhesion to latency associated peptide (LAP), the integrin-binding region of latent TGF-β, was quantified in the presence or absence of Compound 39 of the examples and a small molecule selective inhibitor of αvβ1 by high-content imaging in vitro. […]

TKCC-08 tumors = experiment: Subcutaneous FNX-resistant TKCC-08 PDX model of PDAC (Example B12); format: in vivo, NSG mice
Procedure: Table B-9 depicts the study design to determine the efficacy of selective αvβ1/αvβ8 SMI in the orthotopic ECM-high PDX models of PDAC. Table B-10 depicts the study design for the TKCC-10 PDX model.
Table B-12 depicts the study design for the TKCC-08 model.
FNX is a standard of care chemotherapy regimen for pancreatic ductal adenocarcinoma. However, the clinical response to FNX remains bleak. To assess if Compound 39 augmented the therapeutic benefit of FNX, Compound 39 was tested alone and in combination with FNX in the TKCC-08 model, which is made FNX-resistant by continuous exposure to the FNX.

KPC tumors = experiment: Orthotopic KPC syngeneic model of PDAC (Example B11)
Procedure: The preclinical efficacy of Compound 39 of the examples was determined in genetically-defined (LSL-KrasG12D/+; LSL-Trp53R172H/+; Pdx1-Cre (KPC), and Pan02) and genomically diverse patient-derived PDA xenograft models. Clinically relevant combinations with standard of care (SoC) chemotherapy and anti-programmed death receptor-1 antibody (anti mPD-1) were tested by monitoring tumor growth, metastasis, and animal survival. Mechanistic assessment of alterations in the tumor microenvironment (TME) was performed using transcriptomic, immunohistochemical, and immunofluorescence approaches.
Animals were prepared for injection using standard approved anesthesia. Mice were shaved and tumor cells 500 KPC cells were orthotopically implanted (in pancreas) in a 100 μL cell suspension.
Tumor cells were allowed to form pancreatic tumors for one week. Mice were randomized into groups and treated with indicated compounds and dose regimens according to the schema outlined in Table B-7.
Compound 39 was administered in a solution containing 10% v/v ethanol, 70% w/v propylene glycol, and 20% v/v PBS and administered to mice via oral gavage at a dose of 300 mg/kg body weight over the duration of 22 days (for timepoint study) or 80 days (survival study). The mAbs, anti-mPD-1 and anti-αVβ8, were each administered in PBS by intraperitoneal injection at a dose of 10 mg/kg body weight twice a week (for 2 weeks).
Since these were orthotopic tumors, tumor volume measurement was not possible. Tumor weights were determined at the end of the study. Additionally, body weight of mice and any change in behavior/appearance were monitored twice a week for any signs of discomfort/toxicity.
The study was terminated either at 22 days after the first dose, or at 80 days for the survival study. Mice were euthanized and tumors were collected. Half of the tumor was snap frozen in liquid nitrogen and the other half was fixed in formalin.
Formalin (10%) fixed tissues were sent to Histowiz (a clinical research organization providing complete histology services) for paraffin embedding and sectioning. Using standard protocols optimized by Histowiz, tissue sections were stained for hematoxylin and eosin and immunostained for CD8, CD4, Cleaved caspase-3, and FoxP3, which are specific membrane markers for cytotoxic, helper, and regulator T cells, respectively. Additionally, tissues were stained with Pico Sirius Red (PSR) and second harmonic imaging (SHG) analysis was performed to evaluate stromal collagen density.

Pan02 tumors = experiment: Pan02 (pancreatic) syngeneic tumor model (Example B6); format: in vivo, C57BL/6 mice
Procedure: The therapeutic impact of Compound 39 of the examples in combination with anti PD-1 was studied for several […] mouse models, as shown in Table B-3. For each model, four dosing regimens were studied, using a group size of 10 mice per dosing regimen per model, and a total of 40 mice per model.
Mice were shaved and tumor cells as indicated in Table B-3 were subcutaneously implanted in a 100 μl cell suspension that was subcutaneously injected into the front/rear flank of each mouse (as indicated in Table B-3).
There was no dosing holiday. Dietary supplements were uniform for all animals in the same group.
Animals were monitored weekly for changes in tumor volume. Tumors were measured at least once a week using calipers. Tumor volume was calculated using the equation: (longest diameter*shortest diameter^2)/2. […]
Tumor tissues (50 to 80 mg) were homogenized using metal beads in pre-chilled RINO screw cap tubes, using lysis matrix (MP Lysing Matrix S [⅛″], 2 mL Tube MP Biomedical Cat #116925100) on MP Fast Prep 24 instrument. […] Hybridized reactions were read on nCounter MAX (Nanostring), and data were analyzed using nCounter software.
Table B-5 lists the catalog numbers of the antibodies used in the immunohistochemical (IHC) studies. Quantification of staining was done using the HALO software package (Indica Labs, Albaquerque, NM).

## Cc1ncnc(Cl)c1C1(C(=O)N[C@@H](CCOCCCCc2ccc3c(n2)NCCC3)C(=O)O)CC1 [Compound 39, N-(1-(4-chloro-6-methylpyrimidin-5-yl)cyclopropane-1-carbonyl)-O-(4-(5,6,7,8-tetrahydro-1,8-naphthyridin-2-yl)butyl)-L-homoserine]
[1]; LUAD, LUSC and pancreatic stellate CAFs, FIG. 103-105
  adhesion of CAFs to LAP: inhibits the adhesion of LUAD, LUSC, and PSC CAFs to TGFβ latency-associated peptide in a dose-dependent manner; also recorded: blocked the binding of CAFs to LAP; also recorded: significantly block in vitro binding of primary human CAFs to LAP
[1]; cell adhesion assays
  binding of latency associated peptide (LAP) to αvβ1: prevented
TKCC-08 tumors; FNX-resistant subcutaneous tumors, Compound 39 300 mg/kg BID oral, FNX i.v. weekly, FIG. 27B
  mean tumor weight: 0.4 ± 0.15 g
TKCC-08 tumors; in words, FIG. 27A, 27B
  tumor growth and tumor weight: significantly reduced the tumor growth and the tumor weight
KPC tumors; 22 day timepoint, Compound 39 300 mg/kg oral gavage, mAbs 10 mg/kg i.p., FIG. 20B
  mean tumor weight: 0.44 ± 0.9 g
KPC tumors; FIG. 22A, 22B
  collagen content (PSR, SHG imaging): significantly reduced the collagen content
KPC tumors; FIG. 79
  reduction in tumor weight compared with vehicle: 45%
KPC tumors; IHC, FIG. 21A
  avg % CD8^+ T cells/ROI, invasive (leading) edge: 3.06±1.05%
KPC tumors; IHC, FIG. 21B
  avg % CD8^+ T cells/ROI, internal tumor: 2.02±0.77%
KPC tumors; in words, FIG. 23, 46, 47
  disease progression / overall survival: delayed disease progression in vivo; also recorded: improved overall survival compared to α-PD-1
KPC tumors; in words, compared to vehicle, FIG. 21E, 21F
  CD4^+ T cells: did not show any significant difference in CD4^+ T cells
KPC tumors; survival study up to 80 days, FIG. 23B, 23C
  median survival (median OS): 45 days
Pan02 tumors; Pan02, FIG. 16A, 41
  tumor growth: inhibited Pan02 tumor growth
Pan02 tumors; in words, FIG. 16B, 43
  CD8^+ T cell infiltration: increased T-cell infiltration
